Source: patent US11976057B2, “MrgX2 antagonists” (GlaxoSmithKline Intellectual Property Development Limited, priority 2020, dated 2024)

target: T1, human MRGPRX2 (Homo sapiens, UniProt Q96LB1); experiment: Ca2+ mobilization assay (FLIPR TETRA): inhibition of Cortistatin-14 mediated MRGPRX2 activation
T1 sequence (Q96LB1 1-330): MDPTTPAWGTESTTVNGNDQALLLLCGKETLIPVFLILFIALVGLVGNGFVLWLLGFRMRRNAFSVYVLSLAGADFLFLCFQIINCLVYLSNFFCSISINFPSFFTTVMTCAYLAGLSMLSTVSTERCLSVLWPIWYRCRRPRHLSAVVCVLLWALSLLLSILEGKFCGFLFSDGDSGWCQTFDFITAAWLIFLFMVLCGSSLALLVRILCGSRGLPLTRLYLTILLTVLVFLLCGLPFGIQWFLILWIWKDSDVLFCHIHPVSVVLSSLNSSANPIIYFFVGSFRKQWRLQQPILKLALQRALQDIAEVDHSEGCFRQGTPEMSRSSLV

IC50 | Compound
≤ 0.01 µM | C[C@@H](C(=O)Nc1ccc(Oc2ncc(F)cc2F)cn1)[C@H]1CCC(F)(F)[C@@H](c2ccc(=O)[nH]c2)C1 [Example 281, (R)-2-((1S,3R)-4,4-difluoro-3-(6-oxo-1,6-dihydropyridin-3-yl)cyclohexyl)-N-(5-((3,5-difluoropyridin-2-yl)oxy)pyridin-2-yl)propanamide]
0.01 to 0.1 µM | COc1cccc(Oc2ccc(NC(=O)C(C)N3CCC(F)(F)[C@@H](c4ccc(=O)[nH]c4)C3)nc2)n1 (stereo partly drawn) [Example 95, 2-((S)-4,4-difluoro-3-(6-oxo-1,6-dihydropyridin-3-yl)piperidin-1-yl)-N-(5-((6-methoxypyridin-2-yl)oxy)pyridin-2-yl)propanamide]
0.01 to 0.1 µM | C[C@@H](C(=O)Nc1cnc(Oc2ccc(F)cc2)cn1)[C@H]1CCC(F)(F)[C@@H](c2cc[n+]([O-])cc2)C1 [Example 292, 4-((1R,5S)-2,2-difluoro-5-((R)-1-((5-(4-fluorophenoxy)pyrazin-2-yl)amino)-1-oxopropan-2-yl)cyclohexyl)pyridine 1-oxide]
≤ 0.01 µM | C[C@@H](C(=O)Nc1ccc(Oc2ccc(F)cn2)cn1)[C@H]1CCC(F)(F)[C@@H](c2ccc(=O)[nH]c2)C1 [Example 279, (R)-2-((1S,3R)-4,4-difluoro-3-(6-oxo-1,6-dihydropyridin-3-yl)cyclohexyl)-N-(5-((5-fluoropyridin-2-yl)oxy)pyridin-2-yl)propanamide]

Second part, the compound before the results:

Compound | IC50
C[C@@H](C(=O)Nc1ccc(Cl)cn1)N1CCC[C@@H](c2ccc(=O)[nH]c2)C1 [Example 158, (S)—N-(5-chloropyridin-2-yl)-2-((S)-3-(6-oxo-1,6-dihydropyridin-3-yl)piperidin-1-yl)propanamide] | 0.1 to 3.16 µM
CC(C(=O)Nc1ccc(OCC2CCCC2)cn1)N1CCC(F)(F)[C@@H](c2ccc(=O)[nH]c2)C1 (stereo partly drawn) [Example 47, N-(5-(cyclopentyl-methoxy)pyridin-2-yl)-2-((S)-4,4-difluoro-3-(6-oxo-1,6-dihydropyridin-3-yl)piperidin-1-yl)propanamide] | 0.1 to 3.16 µM
C[C@@H](C(=O)Nc1ccc(Oc2ccc(F)cc2)cn1)N1CCC(F)(F)C(c2c[nH]c(=O)c(C(O)C(F)(F)F)c2)C1 (stereo partly drawn) [Example 211, (2S)-2-(4,4-difluoro-3-(6-oxo-5-(2,2,2-trifluoro-1-hydroxyethyl)-1,6-dihydropyridin-3-yl)piperidin-10-yl)-N-(5-(4-fluorophenoxy)pyridin-2-yl)propanamide] | ≤ 0.01 µM
C[C@@H](C(=O)Nc1ccc(F)cn1)N1CCC(F)(F)[C@@H](c2cn(CC(F)(F)F)c(=O)cn2)C1 (single isomer, unassigned) [Example 103] | ≤ 0.01 µM
C[C@@H](C(=O)Nc1ccc(C(=O)OC2CCCC2)cn1)N1CCC(F)(F)[C@@H](c2ccc(=O)[nH]c2)C1 [Example 46, cyclopentyl 6-((S)-2-((S)-4,4-difluoro-3-(6-oxo-1,6-dihydropyridin-3-yl)piperidin-1-yl)propanamido) nicotinate] | 0.1 to 3.16 µM
C[C@@H](C(=O)Nc1ccc(Cl)cn1)N1CCC[C@@H](c2c[nH]c(=O)c(C3CC3)c2)C1 (single isomer, unassigned) [Example 179] | 0.1 to 3.16 µM
CC(C(=O)Nc1cnc(Oc2ccc(F)cc2CO)cn1)N1CCC(F)(F)[C@@H](c2cc[n+]([O-])cc2)C1 (stereo partly shown) [Example 274] | 0.1 to 3.16 µM
C[C@@H](C(=O)Nc1cnc(Oc2ccc(F)c(F)c2F)cn1)N1CCC(F)(F)[C@@H](c2cc[n+]([O-])cc2)C1 [Example 122, 4-((S)-4,4-difluoro-1-((S)-1-oxo-1-((5-(2,3,4-trifluorophenoxy)pyrazin-2-yl)amino)propan-2-yl)piperidin-3-yl)pyridine 1-oxide] | ≤ 0.01 µM
COCCNCc1cc(C2CN(C(C)C(=O)Nc3ccc(Oc4ccc(F)cc4)cn3)CCC2(F)F)c[nH]c1=O (stereo not shown) [Example 239, 2-(4,4-difluoro-3-(5-(((2-methoxyethyl)amino)methyl)-6-oxo-1,6-dihydropyridin-3-yl)piperidin-1-yl)-N-(5-(4-fluorophenoxy)pyridin-2-yl)propanamide] | ≤ 0.01 µM
